Test results taken from ChEMBL document CHEMBL1201862, “PubChem BioAssay data set” (2004).
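All cell lines were grown in 96-well plates and treated with compound for 48 hours. Here, GI50 denotes the concentration required for 50% inhibition of growth.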 Activity calls are given as the source filed them. Rule as the data show it: active = GI50 up to about 1.1 µM and inactive = higher.

Columns and labels:
Experiment in all cases: DTP human tumour cell line panel, 48 h
786-0 = tested on: 786-0
CCRF-CEM = tested on: CCRF-CEM
K562 = tested on: K562
KM12 = tested on: KM12
MOLT-4 = tested on: MOLT-4
SF-268 = tested on: SF-268
SK-MEL-28 = tested on: SK-MEL-28
SNB-19 = tested on: SNB-19
SNB-75 = tested on: SNB-75
SNB-78 = tested on: SNB-78
SW-620 = tested on: SW-620
UACC-257 = tested on: UACC-257
BT-549 = tested on: BT-549
DU-145 = tested on: DU-145
Hs-578T = tested on: Hs-578T
MDA-MB-231 = tested on: MDA-MB-231
MDA-MB-435 = tested on: MDA-MB-435
MDA-N = tested on: MDA-N
PC-3 = tested on: PC-3
T47D = tested on: T47D

Measured: GI50

CCCCCNC(=O)c1c(O)[nH]c(=S)[nH]c1=O
inactive: 786-0 > 100 µM | CCRF-CEM > 100 µM | K562 > 100 µM | KM12 > 100 µM | MOLT-4 > 100 µM | SF-268 > 100 µM | SK-MEL-28 > 100 µM | SNB-19 > 100 µM | SNB-75 > 100 µM | SNB-78 > 100 µM | SW-620 > 100 µM | UACC-257 > 100 µM

COc1cc[n+](C)cc1
inactive: CCRF-CEM > 100 µM | K562 > 100 µM | KM12 > 100 µM | MOLT-4 > 100 µM | SF-268 > 100 µM | SK-MEL-28 > 100 µM | SNB-19 > 100 µM | SNB-75 > 100 µM | SNB-78 > 100 µM | SW-620 > 100 µM | UACC-257 > 100 µM

CC1(O)CCC2(C#N)CCC1C2O (stereo not given)
inactive: 786-0 > 100 µM | CCRF-CEM 49 µM | K562 > 100 µM | KM12 > 100 µM | MOLT-4 > 100 µM | SF-268 > 100 µM | SK-MEL-28 > 100 µM | SNB-19 > 100 µM | SNB-75 > 100 µM | SNB-78 > 100 µM | UACC-257 > 100 µM

Cc1c(/C=N/NC(=O)c2ccccc2O)c(=O)n(-c2ccccc2)n1C
inactive: 786-0 > 100 µM | CCRF-CEM 50.2 µM | K562 > 100 µM | KM12 > 100 µM | MOLT-4 72.6 µM | SF-268 > 100 µM | SK-MEL-28 > 100 µM | SNB-19 > 100 µM | SNB-75 > 100 µM | SNB-78 > 100 µM | SW-620 > 100 µM | UACC-257 > 100 µM

O=c1cc(O)ccn1C1C=C(CO)C(O)C1O (stereo not given)
inactive: CCRF-CEM > 625 µM | KM12 > 625 µM | SF-268 > 625 µM | SK-MEL-28 > 625 µM | SNB-19 > 625 µM | SNB-75 > 625 µM | SNB-78 > 625 µM | SW-620 > 625 µM

CC(=O)Nc1ccccc1-c1nc2ccccc2nc1C
inactive: 786-0 > 100 µM | CCRF-CEM > 100 µM | K562 > 100 µM | KM12 > 100 µM | MOLT-4 > 100 µM | SF-268 > 100 µM | SK-MEL-28 > 100 µM | SNB-19 > 100 µM | SNB-75 81.5 µM | SNB-78 > 100 µM | SW-620 > 100 µM | UACC-257 > 100 µM

COc1cc(-c2ccc(/N=N/c3c(S(=O)(=O)O)cc4cc(S(=O)(=O)O)cc(N)c4c3O)c(OC)c2)ccc1/N=N/c1c(S(=O)(=O)O)cc2cc(S(=O)(=O)O)cc(N)c2c1O
inactive: CCRF-CEM > 88.3 µM | K562 > 78.7 µM | KM12 > 86.1 µM | MOLT-4 > 82.6 µM | SF-268 > 100 µM | SK-MEL-28 > 100 µM | SNB-19 > 100 µM | SNB-75 37.4 µM | SNB-78 78.3 µM | SW-620 73.5 µM | UACC-257 > 100 µM

Cc1ccc(S(=O)(=O)C2=Cc3ccc(C(F)(F)F)cc3C2(O)c2cccc(C(F)(F)F)c2)cc1 (stereo not given)
inactive: 786-0 1.93 µM | BT-549 2.06 µM | CCRF-CEM 2.56 µM | DU-145 3.25 µM | Hs-578T 3.13 µM | K562 1.99 µM | KM12 1.88 µM | MDA-MB-231 2.08 µM | MDA-MB-435 2.05 µM | MDA-N 2.38 µM | MOLT-4 2.5 µM | PC-3 2.79 µM | SF-268 2.39 µM | SK-MEL-28 1.9 µM | SNB-19 5.83 µM | SNB-75 2.93 µM | SW-620 1.85 µM | T47D 3.1 µM | UACC-257 1.85 µM

O=C(CSc1nnc(-c2ccc(/N=C\c3ccc(Cl)cc3)cc2)o1)Nc1ccccc1
inactive: 786-0 21.5 µM | CCRF-CEM 32.9 µM | K562 30.1 µM | KM12 > 10 µM | MOLT-4 39.6 µM | SF-268 35.7 µM | SK-MEL-28 43.6 µM | SNB-19 53 µM | SNB-75 94.8 µM | SNB-78 63.1 µM | SW-620 44.9 µM | UACC-257 > 100 µM

CC(=O)C(/N=N\C1CCC(S(=O)(=O)NB2N=CS2)CC1)C(=O)Nc1ccccc1C (stereo not given)
inactive: CCRF-CEM 19 µM | K562 > 100 µM | KM12 16 µM | MOLT-4 18.3 µM | SF-268 14.7 µM | SK-MEL-28 15.4 µM | SNB-19 16.5 µM | SNB-75 17.5 µM | SNB-78 23.6 µM | SW-620 16.3 µM | UACC-257 17.9 µM

N#C/C(=C\c1ccc(C(O)P(=O)(O)O)cc1)C(N)=O (stereo not given)
inactive: 786-0 29.8 µM | CCRF-CEM 9.93 µM | K562 > 100 µM | KM12 > 100 µM | MOLT-4 24.9 µM | SF-268 > 100 µM | SK-MEL-28 > 100 µM | SNB-19 > 100 µM | SNB-78 > 100 µM | SW-620 > 100 µM | UACC-257 > 100 µM
